Measured values: patent publication US6479487B1, “6, 9-disubstituted 2-[trans-(4-aminocyclohexyl)amino] purines” (Aventis Pharmaceuticals Inc., priority 1998, dated 2002)
Values joined by “and” are separate entries in the source; they are usually repeats but may differ in a detail not shown here. Equal values may be shown once. Where a name gives a salt, the structure may show the parent alone. Read-outs that look alike come from different tables or passages of the source.

Columns and labels:
A549 = experiment: In vitro tumor cell proliferation, A549; assay type: cell-based, human; conditions: many values given with an undefined *, read-out: In vitro Tumor Cell Proliferation (IC50, μM) Lung A549
Procedure, shortened: (§1)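 SRB read-out: cells seeded overnight, 37° C; drug 3 d, medium plus fresh drug replaced, +4 d; TCA fix 60 min 4° C, 0.4% SRB stain 30 min. Alt. CyQUANT: drug 3 d, plates frozen −80° C before read.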

cdk2/cyclin E = target: T1, cdk2/cyclin E (Homo sapiens, UniProt P24941); experiment: Cyclin-Dependent Kinase 2 Assay (cdk2/cyclin E, GST-Rb substrate); assay type: biochemical; conditions: recombinant cdk2/cyclin E, 10 μM ATP, 30 min at 30° C., several values in a cell = separate determinations, read-out: CDK-2 Inhibition IC50
T1 construct: made in house; host or cells: insect cells (baculovirus co-infection)
Procedure: Substrate: GST-Rb as described above for cdk4/cyclin D1
Assay conditions for cdk2/cyclin E were identical to those for cdk4/cyclin D1 including the substrate. The concentration of recombinant cdk2/cyclin E in the assay was 0.1 μg per 100 μl assay. Incubation was for 30 min at 30° C.

PC-3 = experiment: In vitro tumor cell proliferation, PC-3; assay type: cell-based, human; conditions: many values given with an undefined *, read-out: In vitro Tumor Cell Proliferation (IC50, μM) Prostate PC-3
Procedure, shortened: as §1

Colo-205 = experiment: In vitro tumor cell proliferation, Colo-205; assay type: cell-based; conditions: values given with an undefined *, read-out: In vitro Tumor Cell Proliferation (IC50, μM) Colon Colo-205
Procedure, shortened: as §1

HT-29 = experiment: In vitro tumor cell proliferation, HT-29; assay type: cell-based, human; conditions: many values given with an undefined *, read-out: In vitro Tumor Cell Proliferation (IC50, μM) Colon HT-29
Procedure, shortened: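 HT-29 cells seeded overnight at 37° C, then exposed to drug for 3 days, refed with fresh drug-containing medium for 4 more days. Proliferation read by sulforhodamine B staining after TCA fixation; alternatively by CyQUANT after freezing plates at −80° C following 3 days' drug exposure.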

MDA-MB-435 = experiment: In vitro tumor cell proliferation, MDA-MB-435; assay type: cell-based; conditions: values given with an undefined *, read-out: In vitro Tumor Cell Proliferation (IC50, μM) Breast MDA-MB-435
Procedure, shortened: as §1

DMS-114 = experiment: In vitro tumor cell proliferation, DMS-114; assay type: cell-based, human; conditions: many values given with an undefined *, read-out: In vitro Tumor Cell Proliferation (IC50, μM) Lung DMS-114
Procedure, shortened: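 Human small cell lung carcinoma DMS-114 cells plated overnight, then drug-treated for 3 days, medium and drug renewed, and incubated 4 more days. Growth read by sulforhodamine B staining after TCA fixation; alternatively by CyQUANT after 3 days' drug exposure and freezing at −80 °C.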

MDA-MB-231 = experiment: In vitro tumor cell proliferation, MDA-MB-231; assay type: cell-based, human; conditions: sulforhodamine B or CyQUANT assay, many values given with an undefined *, read-out: In vitro Tumor Cell Proliferation (IC50, μM) Breast MDA-MB-231
Procedure, shortened: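 Cells plated overnight at 37 °C, then exposed to drug for 3 days, refed with fresh drug and incubated 4 more days. Read-out by sulforhodamine B staining after TCA fixation; alternatively, CyQUANT after 3-day drug exposure and freezing at −80 °C.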

cdk4/cyclin D1 = target: T2, cdk4/cyclin D1 (Homo sapiens, UniProt P11802); experiment: Cyclin-dependent Kinase 4 Assay (cdk4/cyclin D1, GST-Rb substrate); assay type: biochemical; conditions: cdk4/cyclin D1 insect cell lysate, 10 μM ATP, 30 min at 37° C., several values = separate determinations, read-out: CDK4 Inhibition IC50
T2 construct: made in house; host or cells: Sf9 insect cells (Bac-to-Bac baculovirus, pFastBac)
T2 sequence (P11802 whole entry): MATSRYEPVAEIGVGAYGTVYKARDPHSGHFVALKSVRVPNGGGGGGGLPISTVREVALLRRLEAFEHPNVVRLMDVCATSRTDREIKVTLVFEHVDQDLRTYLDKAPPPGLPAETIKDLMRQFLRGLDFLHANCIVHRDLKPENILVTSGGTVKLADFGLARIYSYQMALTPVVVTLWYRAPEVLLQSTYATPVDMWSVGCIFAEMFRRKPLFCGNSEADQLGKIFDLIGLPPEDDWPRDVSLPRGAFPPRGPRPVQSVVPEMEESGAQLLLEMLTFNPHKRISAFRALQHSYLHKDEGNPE
T2 sequence (P24385 whole entry partner): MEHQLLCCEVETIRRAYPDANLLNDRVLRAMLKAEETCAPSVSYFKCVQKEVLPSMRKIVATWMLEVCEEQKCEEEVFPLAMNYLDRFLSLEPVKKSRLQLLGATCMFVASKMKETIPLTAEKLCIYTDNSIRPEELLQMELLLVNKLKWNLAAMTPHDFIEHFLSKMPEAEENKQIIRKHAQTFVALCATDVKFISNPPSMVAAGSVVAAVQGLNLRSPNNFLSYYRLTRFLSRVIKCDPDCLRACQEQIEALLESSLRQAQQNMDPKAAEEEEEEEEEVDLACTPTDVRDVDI
Procedure, shortened: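 Insect-cell lysate of coexpressed cdk4/cyclin D1 (0.1 μg) acts on GST-Rb (0.5 μg) bound to glutathione-Sepharose, in 50 mM HEPES pH 7.5, 10 mM MgCl2, 1 mM EGTA. Reaction runs 30 min at 37 °C, then is stopped by filtration and TNEN washes. Rb phosphorylation read by scintillation counting; IC50 derived.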

DU145 = experiment: In vitro tumor cell proliferation, DU145; assay type: cell-based, human; conditions: many values given with an undefined *, read-out: In vitro Tumor Cell Proliferation (IC50, μM) Prostate DU145
Procedure, shortened: as §1

[1] = Homo sapiens, COLO 205, Colo-205
[2] = Homo sapiens, MDA-MB-435, MDA-MB-435
[3] = Homo sapiens, MDA-MB-231, MDA-MB-231

| SMILES | IC50 (A549; A549, trihydrochloride) | IC50 (A549; Homo sapiens, A549, A549) [µM] | IC50 (cdk2/cyclin E) | IC50 (PC-3; Homo sapiens, PC-3, PC-3) [µM] | IC50 (PC-3; PC-3, trihydrochloride) [µM] | IC50 (Colo-205; Colo-205, trihydrochloride) | IC50 (Colo-205; [1]) [µM] | IC50 (HT-29; HT-29, trihydrochloride) | IC50 (HT-29; Homo sapiens, HT-29, HT-29) [µM] | IC50 (MDA-MB-435; [2]) [µM] | IC50 (MDA-MB-435; MDA-MB-435, trihydrochloride) | IC50 (DMS-114; DMS-114, trihydrochloride) | IC50 (DMS-114; Homo sapiens, DMS-114, DMS-114) [µM] | IC50 (MDA-MB-231; [3]) [µM] | IC50 (MDA-MB-231; MDA-MB-231, trihydrochloride) | IC50 (cdk4/cyclin D1) | IC50 (DU145; DU145, trihydrochloride) | IC50 (DU145; Homo sapiens, DU-145, DU145) [µM] | IC50 (cdk2/cyclin E; trihydrochloride) | IC50 (PC-3; PC-3) [µM] |
| --- | --- | --- | --- | --- | --- | --- | --- | --- | --- | --- | --- | --- | --- | --- | --- | --- | --- | --- | --- | --- |
| N[C@H]1CC[C@H](Nc2nc(NCC3CCN(Cc4ccccc4)CC3)c3ncn(C4CCCC4)c3n2)CC1 [Example 147-ac, 2-[Trans-(4-aminocyclohexyl)amino]-6-[4-(1-benzyl)piperidinylmethylamino]-9-cyclopentylpurine trihydrochloride] | 0.62 µM | 0.47 | 170 nM and 370 nM and 530 nM and 400 nM | 0.78 | 0.82 | 0.66 µM | 0.61 | 0.93 µM | 1 | 0.97 | 1.1 µM | 1 µM | 1.4 | 0.79 | 0.75 µM | 3300 nM and 1200 nM | 0.66 µM | 0.71 | – | – |
| N[C@H]1CC[C@H](Nc2nc(NC3CCN(Cc4cccc(Oc5ccccc5)c4)CC3)c3ncn(C4CCCC4)c3n2)CC1 [Example 147-ad, 2-[Trans-(4-aminocyclohexyl)amino]-6-[4-[1-(3-phenoxybenzyl)]piperidinylamino]-9-cyclopentylpurine trihydrochloride] | 0.43 µM | 0.39 | 280 nM and 190 nM | 0.48 | 0.86 | 0.58 µM | 0.53 | 0.7 µM | 0.79 | 0.87 | 1 µM | 0.62 µM | 0.82 | 0.64 | – | 3000 nM and 3200 nM | 0.62 µM | 0.54 | – | – |
| N[C@H]1CC[C@H](Nc2nc(NC3CCN(Cc4ccccc4C(F)(F)F)CC3)c3ncn(C4CCCC4)c3n2)CC1 [Example 147-b, 2-[Trans-(4-aminocyclohexyl)amino]-6-[4-[1-(2-trifluoromethylbenzyl)]piperidinylamino]-9-cyclopentylpurine trihydrochloride] | 0.4 µM | 0.42 | 1200 nM and 920 nM | 0.63 | 0.78 | 0.62 µM | 0.48 | 0.61 µM | 0.65 | 0.99 | 0.95 µM | 0.82 µM | 0.92 | 0.64 | 0.73 µM | 2400 nM and 4500 nM | 0.61 µM | 0.46 | – | – |
| COc1cc(CN2CCC(Nc3nc(N[C@H]4CC[C@H](N)CC4)nc4c3ncn4C3CCCC3)CC2)cc(OC)c1 [Example 147-c, 2-[Trans-(4-aminocyclohexyl)amino]-6-[4-[1-(3,5-dimethoxybenzyl)]piperidinylamino-9-cyclopentylpurinetrihydrochloride] | 0.24 µM | 0.18 | 560 nM and 270 nM and 450 nM | 0.22 | 0.33 | 0.2 µM | 0.19 | 0.3 µM | 0.32 | 0.33 | 0.34 µM | 0.32 µM | 0.3 | 0.23 | 0.27 µM | 670 nM and 600 nM | 0.3 µM | 0.21 | – | – |
| N[C@H]1CC[C@H](Nc2nc(NC3CCN(Cc4cc(C(F)(F)F)cc(C(F)(F)F)c4)CC3)c3ncn(C4CCCC4)c3n2)CC1 [Example 147-d, 2-[Trans-(4-aminocyclohexyl)amino]-6-[4-[1-[3,5-bis(trifluoromethyl)benzyl]]piperidinylamino]-9-cyclopentylpurine trihydrochloride] | 0.23 µM and 0.25 µM | – | – | – | – | 0.38 µM and 0.52 µM | – | 0.44 µM and 0.34 µM | – | – | 0.69 µM and 0.94 µM | 0.34 µM and 0.36 µM | – | – | 0.47 µM and 0.42 µM | 64000 nM | 0.69 µM and 0.58 µM | – | 890 nM and 530 nM and 750 nM | 0.66 |
| N[C@H]1CC[C@H](Nc2nc(NC3CCN(Cc4cccc(F)c4F)CC3)c3ncn(C4CCCC4)c3n2)CC1 [Example 147-e, 2-[Trans-(4-aminocyclohexyl)amino]-6-[4-1-(2,3-difluorobenzyl)]piperidinylamino]-9-cyclopentylpurine trihydrochloride] | 0.3 µM | 0.35 | 340 nM and 230 nM and 460 nM | 0.47 | 0.35 | 0.32 µM | 0.34 | 0.3 µM | 0.59 | 0.62 | 0.6 µM | 0.5 µM | 0.58 | 0.58 | 0.3 µM | 2700 nM and 4600 nM | 0.41 µM | 0.35 | – | – |
| N[C@H]1CC[C@H](Nc2nc(NC3CCN(Cc4cc(F)cc(F)c4)CC3)c3ncn(C4CCCC4)c3n2)CC1 [Example 147-g, 2-[Trans-(4-aminocyclohexyl)amino]-6-[4-1 1-(3.5-difluorobenzyl)]piperidinylamino]-9-cyclopentylpurine trihydrochloride] | 0.14 µM | 0.19 | 330 nM and 290 nM | 0.21 | 0.39 | 0.13 µM | 0.18 | 0.29 µM | – | 0.3 | 0.41 µM | 0.26 µM | 0.32 | 0.29 | – | 3500 nM and 2000 nM | 0.25 µM | 0.22 | – | – |
| N[C@H]1CC[C@H](Nc2nc(NC3CCN(Cc4ccc(F)cc4F)CC3)c3ncn(C4CCCC4)c3n2)CC1 [Example 147-h, 2-[Trans-(4-aminocyclohexyl)amino]-6-[4-[1-(2,4-difluorobenzyl)piperidinylamino]-9-cyclopentylpurinetrihydrochloride] | 0.16 µM | 0.22 | 100 nM and 240 nM | 0.33 | 0.58 | 0.21 µM | 0.34 | 0.47 µM | 0.42 | 0.48 | 0.78 µM | 0.47 µM | 0.94 | 0.47 | – | 2800 nM and 1800 nM | 0.36 µM | 0.34 | – | – |
